The nature of data set [1]: Pharmacokinetic study in minipigs (terminal half-life after i.v. administration). The data set is classed as in vivo. To be noted: female, Göttingen, minipig, in vivo, iv; minipigs, i.v. administration, harmonic mean; read-out: Terminal half-life t1/2 (converted). As to the method:
The purpose of this example is to determine the half-life in vivo of the derivatives of the present invention after i.v. administration to minipigs, i.e. the prolongation of their time in the body and thereby their time of action. This is done in a pharmacokinetic (PK) study, where the terminal half-life of the derivative in question is determined. By terminal half-life is generally meant the period of time it takes to […] certain plasma concentration, measured after the initial distribution phase. Female Göttingen minipigs were obtained from Ellegaard Göttingen Minipigs (Dalmose, Denmark) approximately 7-14 months of age and weighing from approximately 16-35 kg were used in the studies. The minipigs were housed individually and fed restrictedly once daily with SDS minipig diet (Special Diets Services, Essex, UK). After at 3 weeks of acclimatisation two permanent central venous catheters were implanted in vena cava caudalis in each animal. The animals were allowed 1 week recovery after the surgery, and were then used for repeated pharmacokinetic studies with a suitable wash-out period between successive derivative dosing. The animals were fasted for approximately 18 hours before dosing and from 0 to 4 hours after dosing, but had adlibitum access to water during the whole period. […] Blood samples (for example 0.8 mL) were collected in 8 mM EDTA buffer and then centrifuged at 4° C. and 1942 g for 10 minutes. Plasma was pipetted into Micronic tubes on dry ice and kept at -20° C. until analysed for plasma concentration of the compounds using ELISA, or a similar antibody-based assay, or LCMS. […] (Pharsight Inc., Mountain View, CA, USA), and the resulting terminal half-lives (harmonic mean) determined.

The target in data set [2] is human GLP-1 receptor (Homo sapiens, UniProt P43220). In words: cell-based. The following applies: hGLP-1R.
The target of data set [3] is T1, mouse GIP receptor (Mus musculus, UniProt Q0P543).
T1 sequence (Q0P543 19-460): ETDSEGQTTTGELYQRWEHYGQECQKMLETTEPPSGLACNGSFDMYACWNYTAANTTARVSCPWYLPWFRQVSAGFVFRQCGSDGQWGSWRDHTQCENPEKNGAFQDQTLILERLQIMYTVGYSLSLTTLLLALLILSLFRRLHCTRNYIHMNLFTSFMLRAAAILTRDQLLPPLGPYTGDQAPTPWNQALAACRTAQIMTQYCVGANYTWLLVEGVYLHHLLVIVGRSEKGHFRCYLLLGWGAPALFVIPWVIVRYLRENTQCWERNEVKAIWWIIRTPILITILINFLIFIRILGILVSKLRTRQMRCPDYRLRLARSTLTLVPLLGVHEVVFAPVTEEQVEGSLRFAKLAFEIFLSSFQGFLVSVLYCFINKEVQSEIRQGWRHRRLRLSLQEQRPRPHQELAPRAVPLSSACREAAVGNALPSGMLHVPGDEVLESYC
In words: cell-based.

Data set [4] has as its target human glucagon receptor (Homo sapiens, UniProt P47871). In words: cell-based.
Description: The in vitro functional potency is the measure of target receptor activation in a whole cell assay.
In vitro functional potency was determined by measuring the response of the target receptor in a reporter gene assay in individual cell lines. […] When the respective receptor is activated, it results in the production of cAMP, which in turn results in expression of the luciferase protein. When assay incubation is completed, luciferase substrate (luciferin) is added resulting in the enzymatic conversion of luciferin to oxyluciferin and producing bioluminescence. The luminescence is measured as the readout for the assay.
The cells lines used in these assays were BHK cells with BHKTS13 as a parent cell line. The cell lines were derived from a clone containing the CRE luciferase element and were established by further transfection with the respective receptor to obtain the relevant cell line.
The cells were cultured at 37° C. with 5% CO2 in Cell Culture Medium. They were aliquoted and stored in liquid nitrogen. The cells were kept in continuous culture and were seeded out the day before each assay.
GLP-1R and GcgR Cell Culture Medium consisted of DMEM medium with 10% FBS, 500 μg/mL G418, and 300 μg/mL hygromycin. GIPR Cell Culture Medium consisted of DMEM medium with 10% FBS, 400 μg/mL G418, and 300 μg/mL hygromycin. Assay Buffer consisted of DMEM w/o phenol red, 10 mM Hepes, 1×Glutamax, 1% ovalbumin, and 0.1% Pluronic F-68 with the addition of HSA at twice the final assay concentration.
• 1) Cells were plated at 5000 cells/well and incubated overnight in the assay plate. • 2) Cells were washed once in DPBS. • 3) Stocks of the test compounds and reference compounds in concentrations ranging from 100-300 μM were diluted 1:150 in Assay Buffer. Compounds were then diluted 1:10 in column 1 of a 96 deep well dilution plate and then carried across the row creating a 3.5 fold, 12 point dilution curve. • 4) Assay Buffer (50 μl aliquot) with or without HSA was added to each well in the assay plate. • 5) A 50 μl aliquot of compound or blank was transferred from the dilution plate to the assay plate containing the Assay Buffer with or without HSA. • 6) The assay plate was incubated for 3 h in a 5% CO2 incubator at 37° C. 7) The cells were washed once with DPBS. • 8) A 100 μl aliquot of DPBS was added to each well of the assay plate. • 9) A 100 μl aliquot of steadylite plus reagent (light sensitive) was added to each well of the assay plate. • 10) Each assay plate was covered with aluminum foil to protect it from light and shaken at 250 RPM for 30 min at room temperature. • 11) Each assay plate was read in a microtiter plate reader.
The data from the microtiter plate reader was first regressed in an Excel in order to calculate the x-axis, log scale concentrations based on the individual test compound's stock concentration and the dilutions of the assay. […] The software performs a non-linear regression (log(agonist) vs response). A minimum of two replicates was measured for each sample. The reported values are averages of the replicates.
In data set [5] the target is T2, mouse GLP-1 receptor (Mus musculus, UniProt O35659).
T2 sequence (O35659 22-463): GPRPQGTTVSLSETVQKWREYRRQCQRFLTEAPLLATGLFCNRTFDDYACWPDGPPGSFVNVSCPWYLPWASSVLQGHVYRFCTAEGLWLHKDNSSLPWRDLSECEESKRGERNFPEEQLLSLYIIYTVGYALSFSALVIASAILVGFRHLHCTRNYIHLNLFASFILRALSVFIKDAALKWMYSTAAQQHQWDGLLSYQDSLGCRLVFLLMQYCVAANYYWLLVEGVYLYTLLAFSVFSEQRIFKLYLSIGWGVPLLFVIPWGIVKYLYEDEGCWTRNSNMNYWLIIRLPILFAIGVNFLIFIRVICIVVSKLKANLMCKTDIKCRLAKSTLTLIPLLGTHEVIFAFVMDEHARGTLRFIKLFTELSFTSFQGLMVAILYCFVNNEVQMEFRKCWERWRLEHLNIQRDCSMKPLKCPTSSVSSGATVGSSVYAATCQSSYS

Starred links: 1 amine or outer side, 2 acyl side, 3 side chain; linkers in the order of their positions; H or OH if unused. Non-standard residues stand in square brackets, D forms with d. Residues, ends and D or L forms follow the SMILES beside them. Groups on a side chain read outwards from the residue. *: point of attachment. C20 diacid = O=C(O)CCCCCCCCCCCCCCCCCCC(=O)*; γGlu = O=C(O)[C@H](CCC(=O)[*:2])N[*:1]; εLys = N[C@@H](CCCCN[*:1])C(=O)[*:2]; Trx = NC[C@H]1CC[C@H](C(=O)O)CC1; Aib = CC(C)(N)C(=O)O

Chain of human GLP-1 receptor (P43220 24-463): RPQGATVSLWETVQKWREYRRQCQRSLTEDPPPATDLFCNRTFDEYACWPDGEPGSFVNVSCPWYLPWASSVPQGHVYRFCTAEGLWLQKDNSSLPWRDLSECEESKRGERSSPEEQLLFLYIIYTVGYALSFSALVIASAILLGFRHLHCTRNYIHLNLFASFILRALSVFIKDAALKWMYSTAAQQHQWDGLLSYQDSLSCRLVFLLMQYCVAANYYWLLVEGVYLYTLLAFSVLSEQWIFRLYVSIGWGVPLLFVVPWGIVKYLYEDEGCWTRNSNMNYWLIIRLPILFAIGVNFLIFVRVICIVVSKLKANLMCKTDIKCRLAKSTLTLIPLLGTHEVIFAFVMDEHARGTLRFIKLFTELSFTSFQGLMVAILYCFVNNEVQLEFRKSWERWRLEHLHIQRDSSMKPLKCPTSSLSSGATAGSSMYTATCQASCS
Chain of human glucagon receptor (P47871 26-477): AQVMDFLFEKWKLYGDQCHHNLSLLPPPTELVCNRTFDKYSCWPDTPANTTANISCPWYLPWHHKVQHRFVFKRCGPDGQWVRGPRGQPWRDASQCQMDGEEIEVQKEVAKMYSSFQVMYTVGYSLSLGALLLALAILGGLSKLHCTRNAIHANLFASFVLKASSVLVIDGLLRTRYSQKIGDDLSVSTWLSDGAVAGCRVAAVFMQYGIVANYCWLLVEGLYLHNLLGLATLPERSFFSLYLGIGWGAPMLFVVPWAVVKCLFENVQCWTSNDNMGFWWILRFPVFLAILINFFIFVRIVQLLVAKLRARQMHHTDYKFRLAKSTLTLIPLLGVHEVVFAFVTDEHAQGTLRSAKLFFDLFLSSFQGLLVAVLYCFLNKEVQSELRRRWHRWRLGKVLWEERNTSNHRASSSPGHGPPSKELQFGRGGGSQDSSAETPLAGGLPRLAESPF

Take `CC[C@H](C)[C@H](NC(=O)[C@H](CO)NC(=O)[C@H](Cc1ccc(O)cc1)NC(=O)[C@H](CC(=O)O)NC(=O)[C@H](CO)NC(=O)[C@@H](NC(=O)[C@H](Cc1ccccc1)NC(=O)[C@@H](NC(=O)CNC(=O)[C@H](CCC(=O)O)NC(=O)C(C)(C)NC(=O)[C@@H](N)Cc1ccc(O)cc1)[C@@H](C)O)[C@@H](C)O)C(=O)N[C@@H](Cc1ccc(O)cc1)C(=O)N[C@@H](CC(C)C)C(=O)N[C@@H](CCC(=O)O)C(=O)N[C@@H](CCCCNC(=O)[C@@H](N)CCCCNC(=O)[C@@H](N)CCCCNC(=O)CC[C@H](NC(=O)[C@H]1CC[C@H](CNC(=O)CCCCCCCCCCCCCCCCCCC(=O)O)CC1)C(=O)O)C(=O)N[C@@H](CCC(N)=O)C(=O)N[C@@H](C)C(=O)N[C@@H](C)C(=O)NC(C)(C)C(=O)N[C@@H](CCC(=O)O)C(=O)N[C@@H](Cc1ccccc1)C(=O)N[C@H](C(=O)N[C@@H](CC(N)=O)C(=O)N[C@@H](Cc1c[nH]c2ccccc12)C(=O)N[C@@H](CC(C)C)C(=O)N[C@@H](CC(C)C)C(=O)N[C@@H](C)C(=O)NCC(=O)NCC(=O)N1CCC[C@H]1C(=O)N[C@@H](CO)C(=O)N[C@@H](CO)C(=O)NCC(=O)N[C@@H](C)C(=O)N1CCC[C@H]1C(=O)N1CCC[C@H]1C(=O)N1CCC[C@H]1C(=O)N[C@@H](CO)C(N)=O)C(C)C` [Compound 20] (H-Y[Aib]EGTFTSDYSIYLEK([εLys-εLys-γGlu-Trx-C20 diacid])QAA[Aib]EFVNWLLAGGPSSGAPPPS-NH2; N-terminus assumed): the half-life in data set [1] was 88 h. Further, the concentration for a half-maximal effect (EC50) in data set [2] (CRE Luc 0% HSA EC50, 0% HSA) is 0.0033 nM; in data set [2] (CRE Luc 1% HSA EC50, 1% HSA), 0.261 nM; in data set [3], 0.012 nM; in data set [4], greater than 10 nM; in data set [5], 0.0026 nM.

As to `CC[C@H](C)[C@H](NC(=O)[C@H](CO)NC(=O)[C@H](Cc1ccc(O)cc1)NC(=O)[C@H](CC(=O)O)NC(=O)[C@H](CO)NC(=O)[C@@H](NC(=O)[C@H](Cc1ccccc1)NC(=O)[C@@H](NC(=O)CNC(=O)[C@H](CCC(=O)O)NC(=O)C(C)(C)NC(=O)[C@@H](N)Cc1ccc(O)cc1)[C@@H](C)O)[C@@H](C)O)C(=O)N[C@@H](Cc1ccc(O)cc1)C(=O)N[C@@H](CC(C)C)C(=O)N[C@@H](CCC(=O)O)C(=O)N[C@@H](CCC(=O)O)C(=O)N[C@@H](CCC(N)=O)C(=O)N[C@@H](C)C(=O)N[C@@H](C)C(=O)NC(C)(C)C(=O)N[C@@H](CCCCNC(=O)[C@@H](N)CCCCNC(=O)[C@@H](N)CCCCNC(=O)CC[C@H](NC(=O)[C@H]1CC[C@H](CNC(=O)CCCCCCCCCCCCCCCCCCC(=O)O)CC1)C(=O)O)C(=O)N[C@@H](Cc1ccccc1)C(=O)N[C@H](C(=O)N[C@@H](CC(N)=O)C(=O)N[C@@H](Cc1c[nH]c2ccccc12)C(=O)N[C@@H](CC(C)C)C(=O)N[C@@H](CC(C)C)C(=O)N[C@@H](C)C(=O)NCC(=O)NCC(=O)N1CCC[C@H]1C(=O)N[C@@H](CO)C(=O)N[C@@H](CO)C(=O)NCC(=O)N[C@@H](C)C(=O)N1CCC[C@H]1C(=O)N1CCC[C@H]1C(=O)N1CCC[C@H]1C(=O)N[C@@H](CO)C(N)=O)C(C)C` [Compound 19] (H-Y[Aib]EGTFTSDYSIYLEEQAA[Aib]K([εLys-εLys-γGlu-Trx-C20 diacid])FVNWLLAGGPSSGAPPPS-NH2; N-terminus assumed), the half-life in data set [1] was 112 h. In addition, the EC50 was 0.0046 nM in data set [2] (CRE Luc 0% HSA EC50, 0% HSA); 0.297 nM in data set [2] (CRE Luc 1% HSA EC50, 1% HSA); 0.134 nM in data set [3]; greater than 10 nM in data set [4]; 0.0055 nM in data set [5].
